Laboratory results as given in patent US9328138B2 (priority 2011, dated 2016).

Columns and labels:
[1] = target: HCV NS3 protease genotype 3a (3A-1) (Hepatitis C virus genotype 3a, UniProt Q81258); assay: HCV NS3 protease time-resolved fluorescence (TRF) assay, genotype 3a; type: biochemical; details: Ki 3a
Outline: (§1)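 IC50 values derive from 4-parameter fitting of TRF signal after a 6 h room-temperature cleavage of 25 nM peptide substrate by NS3/NS4A that had been pre-incubated 10 min with compound.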

[2] = target: T1, HCV genotype 1b (BK) NS3 modified enzyme with a R155K mutation (Hepatitis C virus genotype 1b, UniProt P26663, R1181K); assay: HCV NS3 protease time-resolved fluorescence (TRF) assay, genotype 1b R155K; type: biochemical; details: Ki 1b R155K
T1 construct: HCV genotype 1b (BK) NS3 modified enzyme
Outline: as §1

[3] = genotype 1b (BK) NS3 R155K, single value
[4] = first of two values printed in the cell (not explained)
[5] = second of two values printed in the cell (not explained)

`C=C[C@@H]1C[C@]1(NC(=O)[C@@H]1C[C@@H]2CN1C(=O)[C@H](C1CCCC1)NC(=O)O[C@@H]1CCC[C@H]1CC/C=C/Cc1c(nc3ccccc3c1OCCCn1cccc1)O2)C(=O)NS(=O)(=O)C1(C)CC1` [Example 55, (3aR,7S,10S,12R,21E,24aS)-7-cyclopentyl-N-[(1R,2S)-2-ethenyl-1-{[(1-methylcyclopropyl)sulfonyl]carbamoyl}cyclopropyl]-5,8-dioxo-19-[3-(1H-pyrrol-1-yl)propoxy]-1,2,3,3a,5,6,7,8,11,12,20,23,24,24a-tetradecahydro-10H-9,12-methanocyclopenta[18,19][1,10,3,6] dioxadiazacyclononadecino[11,12-b] quinoline-10-carboxamide] showed a Ki [1] of 3.9 nM and a Ki [2, 3] of 0.22 nM.
In the case of `C=C[C@@H]1C[C@]1(NC(=O)[C@@H]1C[C@@H]2CN1C(=O)[C@H](C1CCCCC1)NC(=O)O[C@@H]1C[C@H]1CCCCCc1c(nc3c(OC)cccc3c1OCCN1CCOCC1)O2)C(=O)NS(=O)(=O)C1(C)CC1` [Example 128, (1aR,5S,8S,10R,22aR)-5-cyclohexyl-N-[(1R,2S)-2-ethenyl-1-{[(1-methylcyclopropyl)sulfonyl]carbamoyl}cyclopropyl]-13-methoxy-17-[2-(morpholin-4-yl)ethoxy]-3,6-dioxo-1,1a,3,4,5,6,9, 10,18,19,20,21,22,22a-tetradecahydro-8H-7,10-methanocyclopropa [18,19][1,10,3,6]dioxadiaza cyclononadecino[11,12-b]quinoline-8-carboxamide], the Ki [1] is reported as 13 nM and the Ki [2, 3] is reported as 0.41 nM.
In the case of `C=C[C@@H]1C[C@]1(NC(=O)[C@@H]1C[C@@H]2CN1C(=O)[C@H](C1CCCC1)NC(=O)O[C@@H]1CCC[C@H]1CC/C=C/Cc1c(nc3ccccc3c1O)O2)C(=O)NS(=O)(=O)C1(C)CC1` [Example 23, (3aR,7S,10S,12R,21E,24aS)-7-cyclopentyl-N-[(1R,2S)-2-ethenyl-1-{[(1-methylcyclopropyl)sulfonyl]carbamoyl}cyclopropyl]-19-hydroxy-5,8-dioxo-1,2,3,3a,5,6,7,8,11,12,20,23,24,24a-tetradecahydro-10H-9,12-methanocyclopenta[18,19][1,10,3,6]dioxadiazacyclononadecino[11,12-b]quinoline-10-carboxamide], the Ki [1] is reported as 0.64 nM and the Ki [2, 3] is reported as 0.11 nM.
Molecule `C=C[C@@H]1C[C@]1(NC(=O)[C@@H]1C[C@@H]2CN1C(=O)[C@H](C(C)(C)C)NC(=O)O[C@@H]1C[C@H]1CCCCCc1c(nc3c(OC)cccc3c1OCCN1CCOCC1)O2)C(=O)NS(=O)(=O)C1(C)CC1` [Example 127, (1aR,5S,8S,10R,22aR)-5-tert-butyl-N-[(1R,2S)-2-ethenyl-1-{[(1-methylcyclopropyl)sulfonyl]carbamoyl}cyclopropyl]-13-methoxy-17-[2-(morpholin-4-yl)ethoxy]-3,6-dioxo-1,1a,3,4,5,6.9, 10,18,19,20,21,22,22a-tetradecahydro-8H-7,10-methanocyclopropa [18,19][1,10,3,6]dioxadiaza cyclononadecino[11,12-b]quinoline-8-carboxamide] has a Ki [1] of 2.1 nM and a Ki [2, 3] of 0.11 nM.
Molecule `C=C[C@@H]1CC1(NC(=O)[C@@H]1C[C@@H]2CN1C(=O)[C@H](C1CCCCC1)NC(=O)O[C@@H]1C[C@H]1CCCCCc1c(nc3ccccc3c1OC1CCNCC1F)O2)C(=O)NS(=O)(=O)C1(C)CC1` (stereo in doubt) [Example 293, (3S,4R)-4-{[(1aR,5S,8S,10R,22aR)-5-cyclohexyl-8-{[(1R,2S)-2-ethenyl-1-{[(1-methylcyclopropyl)sulfonyl]carbamoyl}cyclopropyl]carbamoyl}-3,6-dioxo-1,1a,3,4,5,6,9,10,18,19,20,21,22,22a-tetradecahydro-8H-7,10-methanocyclopropa[18,19][1,10,3,6]dioxadiazacyclononadecino[11,12-b]quinolin-17-yl]oxy}-3-fluoropiperidinium chloride] has a Ki [1] of 1.3 nM, a Ki [2, 4] of 0.029 nM and a Ki [2, 5] of 0.138 nM.
Molecule `C=C[C@@H]1C[C@]1(NC(=O)[C@@H]1C[C@@H]2CN1C(=O)[C@H](C1CCCC1)NC(=O)O[C@@H]1CCC[C@H]1CC/C=C/Cc1c(nc3ccccc3c1OCCCn1cnnc1)O2)C(=O)NS(=O)(=O)C1(C)CC1` [Example 53, (3aR,7S,10S,12R,21E,24aS)-7-cyclopentyl-N-[(1R,2S)-2-ethenyl-1-{[(1-methylcyclopropyl)sulfonyl]carbamoyl}cyclopropyl]-5,8-dioxo-19-[3-(4H-1,2,4-triazol-4-yl)propoxy]-1,2,3,3a,5,6,7,8,11,12,20,23,24,24a-tetra decahydro-10H-9,12-methanocyclopenta[18,19][1,10,3,6] dioxadiazacyclononadecino[11,12-b] quinoline-10-carboxamide] has a Ki [1] of 0.55 nM and a Ki [2, 3] of 0.11 nM.
For `C=C[C@@H]1C[C@]1(NC(=O)[C@@H]1C[C@@H]2CN1C(=O)[C@H](C(C)(C)C)NC(=O)O[C@@H]1C[C@H]1CCCCCc1c(nc3ccccc3c1OCCCN1CCCC1=O)O2)C(=O)NS(=O)(=O)C1(C)CC1` [Example 118, (1aR,5S,8S,10R,22aR)-5-tert-butyl-N-[(1R,2S)-2-ethenyl-1-{[(1-methylcyclopropyl)sulfonyl]carbamoyl}cyclopropyl]-3,6-dioxo-17-[3-(2-oxopyrrolidin-1-yl)propoxy]-1,1a,3,4,5,6,9,10,18,19,20,21,22,22a-tetradeca hydro-8H-7,10-methano cyclopropa[18,19][1,10,3,6] dioxadiazacyclononadecino [11,12-b]quinoline-8-carboxamide], the Ki [1] was 0.89 nM and the Ki [2, 3] was 0.066 nM.
In the case of `C=C[C@@H]1C[C@]1(NC(=O)[C@@H]1C[C@@H]2CN1C(=O)[C@H](C1CCCC1)NC(=O)O[C@@H]1CCC[C@H]1CC/C=C/Cc1c(nc3ccccc3c1OCCCOCCOC)O2)C(=O)NS(=O)(=O)C1(C)CC1` [Example 57, (3aR,7S,10S,12R,21E,24aS)-7-cyclopentyl-N-[(1R,2S)-2-ethenyl-1-{[(1-methylcyclopropyl)sulfonyl]carbamoyl}cyclopropyl]-19-[3-(2-methoxyethoxy)propoxy]-5,8-dioxo-1,2,3,3a, 5,6,7,8,11,12,20,23,24,24a-tetradecahydro-10H-9,12-methanocyclopenta[18,19][1,10,3,6]dioxadiazacyclononadecino[11,12-b] quinoline-10-carboxamide], the Ki [1] is reported as 2.3 nM and the Ki [2, 3] is reported as 0.11 nM.
`C=C[C@@H]1C[C@]1(NC(=O)[C@@H]1C[C@@H]2CN1C(=O)[C@H](C(C)(C)C)NC(=O)O[C@@H]1C[C@H]1CCCCCc1c(nc3cc(C(C)C)ccc3c1OCCCN1CCS(=O)(=O)CC1)O2)C(=O)NS(=O)(=O)C1(C)CC1` [Example 162, (1aR,5S,8S,10R,22aR)-5-tert-butyl-17-[3-(1,1-dioxidothiomorpholin-4-yl)propoxy]-N-[(1R,2S)-2-ethenyl-1-{[(1-methylcyclopropyl)sulfonyl]carbamoyl}cyclopropyl]-3,6-dioxo-14-(propan-2-yl)-1,1a,3,4,5,6,9,10,18, 19,20,21,22,22a-tetradecahydro-8H-7,10-methanocyclopropa[18,19] [1,10,3,6]dioxadiazacyclononadecino [11,12-b]quinoline-8-carboxamide] gave a Ki [1] of 1.7 nM and a Ki [2, 3] of 0.18 nM.
With `C=C[C@@H]1C[C@]1(NC(=O)[C@@H]1C[C@@H]2CN1C(=O)[C@H](C1CCCCC1)NC(=O)O[C@@H]1C[C@H]1CCCCCc1c(nc3ccccc3c1OCCCN1CCN(C)CC1)O2)C(=O)NS(=O)(=O)C1(C)CC1` [Example 251, (1aR,5S,8S,10R,22aR)-5-cyclohexyl-N-[(1R,2S)-2-ethenyl-1-{[(1-methylcyclopropyl)sulfonyl]carbamoyl}cyclopropyl]-17-[3-(4-methylpiperazin-1-yl)propoxy]-3,6-dioxo-1,1a,3,4,5,6,9,10,18,19,20,21,22,22a-tetradecahydro-8H-7,10-methanocyclopropa[18,19][1,10,3,6]dioxadiazacyclononadecino[11,12-b]quinoline-8-carboxamide] the Ki [1] was 1.15 nM, the Ki [2, 4] was 0.015 nM and the Ki [2, 5] was 0.051 nM.
Work on `C=C[C@@H]1C[C@]1(NC(=O)[C@@H]1C[C@@H]2CN1C(=O)[C@H](C1CCCC1)NC(=O)O[C@@H]1CCC[C@H]1CC/C=C/Cc1c(nc3ccccc3c1OCc1ccccc1)O2)C(=O)NS(=O)(=O)C1CC1` [Example 8, (3aR,7S,10S,12R,21E,24aS)-19-(benzyloxy)-7-cyclopentyl-N-{(1R,2S)-1-[(cyclopropylsulfonyl)carbamoyl]-2-ethenylcyclopropyl}-5,8-dioxo-1,2,3,3a,5,6,7,8,11,12,20,23,24,24a-tetradecahydro-10H-9,12-methanocyclopenta[18,19][1,10,3,6] dioxadiazacyclononadecino[11,12-b]quinoline-10-carboxamide] yielded a Ki [1] of 51 nM and a Ki [2, 3] of 1.6 nM.
For `C=C[C@@H]1C[C@]1(NC(=O)[C@@H]1C[C@@H]2CN1C(=O)[C@H](C(C)(C)C)NC(=O)O[C@@H]1C[C@H]1CCCCCc1c(nc3ccccc3c1OC1C3COCC1CN(C(=O)OC(C)(C)C)C3)O2)C(=O)NS(=O)(=O)C1(C)CC1` (single isomer, unassigned) [Example 255], the Ki [1] was 59.1 nM, the Ki [2, 4] was 0.12 nM and the Ki [2, 5] was 2.21 nM.
With `C=C[C@@H]1C[C@]1(NC(=O)[C@@H]1C[C@@H]2CN1C(=O)[C@H](C(C)(C)C)NC(=O)O[C@@H]1C[C@H]1CCCCCc1c(nc3ccccc3c1-c1ccccn1)O2)C(=O)NS(=O)(=O)C1(C)CC1` [Example 245, (1aR,5S,8S,10R,22aR)-5-tert-butyl-N-[(1R,2S)-2-ethenyl-1-{[(1-methylcyclopropyl)sulfonyl]carbamoyl}cyclopropyl]-3,6-dioxo-17-(pyridin-2-yl)-1,1a,3,4,5,6,9,10,18,19,20,21,22,22a-tetradecahydro-8H-7,10-methanocyclopropa[18,19][1,10,3,6]dioxadiazacyclononadecino[11,12-b]quinoline-8-carboxamide] the Ki [1] was 128 nM, the Ki [2, 4] was 0.546 nM and the Ki [2, 5] was 1.41 nM.
